In patent US9856247B2, “4-methyl-dihydropyrimidines for the treatment and prophylaxis of Hepatitis B virus infection” (Hoffmann-La Roche Inc., priority 2012, dated 2018):

What was measured:
in vitro = details: human
Procedure: The transfected cells were selected with G418 (also known as Genticin, purchased from Invitrogen). […] These cells were maintained in Dulbecco's modified Eagle's medium (DMEM)-F12 medium (Invitrogen) supplemented with 10% fetal bovine serum, 100 U/ml penicillin, and 100 μg/ml streptomycin, 0.5 mg/ml of G418 and 1 μg/ml tetracycline.
To determine if the anti-HBV effect of compound is due to cytotoxicity, HepDE 19 cells (5×10^3 cells/well) were seeded into 96-well plates and compounds were treated as described above. […] Four hours after incubation at 37° C., the absorbance at wavelengths of 450 nm and 630 nm (OD450 and OD630) was recorded by a plate reader.

HBV DNA = test: Anti-HBV activity in HepDE19 cells (HBV DNA dot-blot); type: cell-based, Hepatitis B virus (HBV); details: Hepatitis B virus, 120 h; HepDE19 cells, five days after compound treatment, concentration that inhibited HBV DNA by 50%; read-out: HepDe19 EC50
Text: Cells and culture conditions: HepDE19 (Haitao Guo et al, Journal of Virology, 81, November 2007, 12472-12484; Richeng Mao et al, Journal of Virology, 85, January 2011, 1048-1057) cells were derived from HepG2 (ATCC, American Type Culture Collection) cells through transfection with pTet-off plasmid (Clontech) that expresses the Tet-responsive transcriptional activator and pTREHBVDE plasmid in which HBV pgRNA expression is controlled by a CMV early promoter with a tetracycline-responsive element. The transfected cells were selected with G418 (also known as Genticin, purchased from Invitrogen). […] These cells were maintained in Dulbecco's modified Eagle's medium (DMEM)-F12 medium (Invitrogen) supplemented with 10% fetal bovine serum, 100 U/ml penicillin, and 100 μg/ml streptomycin, 0.5 mg/ml of G418 and 1 μg/ml tetracycline.
Anti-HBV activity and cytotoxicity: HepDE19 cells were seeded into 96-well plates (3×10^4 cells/well) with tetracycline-free medium and incubated overnight at 37° C. The test or control compounds were serially half-log diluted with medium and added into the plates (the final concentration of DMSO kept at 0.5% in each well). Five days after compound treatment, cells were washed with PBS and lysed with 50 mM Tris-1 mM EDTA-0.2% CA-630 (pH 8.0) at 37° C. for 20 min. After centrifugation to remove nuclei and other debris, the supernatant was transferred into a new plate and incubated with 2M NaOH/20×SSC (3M NaCl, 0.3M Sodium citrate, pH7.0) at rt for 30 min. Then the samples were transferred to nylon membrane and neutralized with 1M Tris (pH7.4)/2M NaCl. The presence of HBV DNA was detected by dot-blot with DIG-labeled HBV specific DNA probe and quantified by dot density. The compound concentrations that inhibited HBV DNA by 50% (EC50) were determined (See Table 1).

COC(=O)C1=C(CN2CC(F)(F)C[C@H]2C(=O)Nc2nccs2)NC(c2nccs2)=N[C@@]1(C)c1ccc(F)cc1 [Example 52, (S)-6-[(S)-4,4-difluoro-2-(thiazol-2-ylcarbamoyl)-pyrrolidin-1-ylmethyl]-4-(4-fluoro-phenyl)-4-methyl-2-thiazol-2-yl-1,4-dihydro-pyrimidine-5-carboxylic acid methyl ester]
CC50 at 5 days (in vitro): 4.07 µM
EC50 (HBV DNA): 5.43 µM

COC(=O)C1=C(CN2CC(F)(F)C[C@H]2C(N)=O)NC(c2nccs2)=N[C@@]1(C)c1ccc(F)cc1 [Example 48, (S)-6-((S)-2-carbamoyl-4,4-difluoro-pyrrolidin-1-ylmethyl)-4-(4-fluoro-phenyl)-4-methyl-2-thiazol-2-yl-1,4-dihydro-pyrimidine-5-carboxylic acid methyl ester]
CC50 at 5 days (in vitro): ≥ 100 µM
EC50 (HBV DNA): 0.08 µM

COC(=O)C1=C(CN2CC(F)(F)C[C@H]2C(=O)O)NC(c2nccs2)=N[C@@]1(C)c1ccc(F)c(F)c1 [Example 14, (S)-6-((S)-2-Carboxy-4,4-difluoro-pyrrolidin-1-ylmethyl)-4-(3,4-difluoro-phenyl)-4-methyl-2-thiazol-2-yl-1,4-dihydro-pyrimidine-5-carboxylic acid methyl ester]
CC50 at 5 days (in vitro): > 100 µM
EC50 (HBV DNA): 0.2 µM

C[C@@]1(c2ccc(F)cc2)N=C(c2nccs2)NC(CN2CC(F)(F)C[C@H]2C(=O)O)=C1C#N [Example 21, (S)-1-[(S)-5-Cyano-6-(4-fluoro-phenyl)-6-methyl-2-thiazol-2-yl-3,6-dihydro-pyrimidin-4-ylmethyl]-4,4-difluoro-pyrrolidine-2-carboxylic acid]
CC50 at 5 days (in vitro): > 100 µM
EC50 (HBV DNA): 21 µM

COC(=O)C1=C(CN2CC(F)(F)CCC2C(=O)O)NC(c2nccs2)=N[C@@]1(C)c1ccc(F)cc1 (stereo partly drawn) [Example 25, (S)-6-(2-carboxy-5,5-difluoro-piperidin-1-ylmethyl)-4-(4-fluoro-phenyl)-4-methyl-2-thiazol-2-yl-1,4-dihydro-pyrimidine-5-carboxylic acid methyl ester]
CC50 at 5 days (in vitro): ≥ 100 µM
EC50 (HBV DNA): 1.09 µM

CCOC(=O)C1=C(CN2CC(F)(F)C[C@H]2C(=O)O)NC(c2nccs2)=N[C@]1(C)c1ccc(F)c(F)c1 [Example 28, (R)-6-((S)-2-carboxy-4,4-difluoro-pyrrolidin-1-ylmethyl)-4-(3,4-difluoro-phenyl)-4-methyl-2-thiazol-2-yl-1,4-dihydro-pyrimidine-5-carboxylic acid ethyl ester]
CC50 at 5 days (in vitro): ≥ 100 µM
EC50 (HBV DNA): 7.48 µM

CNC(=O)[C@@H]1CC(F)(F)CN1CC1=C(C(=O)OC)C(C)(c2ccc(F)cc2)N=C(c2nccs2)N1 (stereo partly drawn) [Example 50, 6-((S)-4,4-difluoro-2-methylcarbamoyl-pyrrolidin-1-ylmethyl)-4-(4-fluoro-phenyl)-4-methyl-2-thiazol-2-yl-1,4-dihydro-pyrimidine-5-carboxylic acid methyl ester]
CC50 at 5 days (in vitro): ≥ 100 µM
EC50 (HBV DNA): 0.606 µM

COC(=O)C1=C(CN2CC(F)(F)C[C@H]2c2nc(C)no2)NC(c2nccs2)=N[C@@]1(C)c1ccc(F)cc1 [Example 59, (S)-6-[(S)-4,4-difluoro-2-(3-methyl-[1,2,4]oxadiazol-5-yl)-pyrrolidin-1-ylmethyl]-4-(4-fluoro-phenyl)-4-methyl-2-thiazol-2-yl-1,4-dihydro-pyrimidine-5-carboxylic acid methyl ester]
CC50 at 5 days (in vitro): 65.3 µM
EC50 (HBV DNA): 1.24 µM

CC1(c2ccc(F)c(F)c2)N=C(c2nccs2)NC(CN2CCOC[C@H]2C(=O)O)=C1C#N (stereo partly drawn) [Example 22, (S)-4-[5-Cyano-6-(3,4-difluoro-phenyl)-6-methyl-2-thiazol-2-yl-3,6-dihydro-pyrimidin-4-ylmethyl]-morpholine-3-carboxylic acid]
CC50 at 5 days (in vitro): > 100 µM
EC50 (HBV DNA): 20.4 µM

COC(=O)C1=C(CN2CC(F)(F)C[C@H]2c2nnn[nH]2)NC(c2nccs2)=N[C@@]1(C)c1ccc(F)cc1 [Example 58, (S)-6-[(S)-4,4-difluoro-2-(1H-tetrazol-5-yl)-pyrrolidin-1-ylmethyl]-4-(4-fluoro-phenyl)-4-methyl-2-thiazol-2-yl-1,4-dihydro-pyrimidine-5-carboxylic acid methyl ester]
CC50 at 5 days (in vitro): ≥ 100 µM
EC50 (HBV DNA): 1.02 µM

COC(=O)C1=C(CN2C[C@@H](F)C[C@H]2C(=O)O)NC(c2nccs2)=N[C@@]1(C)c1ccc(F)cc1 [Example 39, (S)-6-((2S,4S)-2-carboxy-4-fluoro-pyrrolidin-1-ylmethyl)-4-(4-fluoro-phenyl)-4-methyl-2-thiazol-2-yl-1,4-dihydro-pyrimidine-5-carboxylic acid methyl ester]
CC50 at 5 days (in vitro): ≥ 100 µM
EC50 (HBV DNA): 10.5 µM

COC(=O)C1=C(CN2CC(F)(F)C[C@H]2C(=O)O)NC(c2nc(C)cs2)=N[C@@]1(C)c1ccc(F)cc1 [Example 32, (S)-6-((S)-2-carboxy-4,4-difluoro-pyrrolidin-1-ylmethyl)-4-(4-fluoro-phenyl)-4-methyl-2-(4-methyl-thiazol-2-yl)-1,4-dihydro-pyrimidine-5-carboxylic acid methyl ester]
CC50 at 5 days (in vitro): 75 µM
EC50 (HBV DNA): 0.13 µM

COC(=O)C1=C(CN2CC(F)(F)C[C@H]2C(=O)O)NC(c2nc(C)cs2)=N[C@]1(C)c1ccc(F)cc1 [Example 31, (R)-6-((S)-2-carboxy-4,4-difluoro-pyrrolidin-1-ylmethyl)-4-(4-fluoro-phenyl)-4-methyl-2-(4-methyl-thiazol-2-yl)-1,4-dihydro-pyrimidine-5-carboxylic acid methyl ester]
CC50 at 5 days (in vitro): ≥ 100 µM
EC50 (HBV DNA): 1.67 µM

COC(=O)C1=C(CN2CCOC[C@H]2C(=O)OC)NC(c2nccs2)=NC1(C)c1ccc(F)c(F)c1 (stereo in doubt) [Example 15, 4-[(S)-6-(3,4-Difluoro-phenyl)-5-methoxycarbonyl-6-methyl-2-thiazol-2-yl-3,6-dihydro-pyrimidin-4-ylmethyl]-morpholine-3-carboxylic acid methyl ester]
CC50 at 5 days (in vitro): > 100 µM
EC50 (HBV DNA): 0.56 µM

COC(=O)C1=C(COC(C)(C)C(=O)OC)NC(c2nccs2)=NC1(C)c1ccc(F)cc1 (stereo not shown) [Example 1, 4-(4-Fluoro-phenyl)-6-(1-methoxycarbonyl-1-methyl-ethoxymethyl)-4-methyl-2-thiazol-2-yl-1,4-dihydro-pyrimidine-5-carboxylic acid methyl ester]
CC50 at 5 days (in vitro): > 100 µM
EC50 (HBV DNA): 26.3 µM

COC(=O)C1=C(CN2CC(F)(F)C[C@H]2C(=O)O)NC(c2cc(C)on2)=NC1(C)c1ccc(F)cc1 (stereo partly drawn) [Example 40, 6-((S)-2-carboxy-4,4-difluoro-pyrrolidin-1-ylmethyl)-4-(4-fluoro-phenyl)-4-methyl-2-(5-methyl-isoxazol-3-yl)-1,4-dihydro-pyrimidine-5-carboxylic acid methyl ester]
CC50 at 5 days (in vitro): ≥ 100 µM
EC50 (HBV DNA): 5.39 µM

COC(=O)C1=C(CN2CC(F)(F)C[C@H]2C(=O)N(C)C)NC(c2nccs2)=N[C@@]1(C)c1ccc(F)cc1 [Example 49, (S)-6-((S)-2-dimethylcarbamoyl-4,4-difluoro-pyrrolidin-1-ylmethyl)-4-(4-fluoro-phenyl)-4-methyl-2-thiazol-2-yl-1,4-dihydro-pyrimidine-5-carboxylic acid methyl ester]
CC50 at 5 days (in vitro): ≥ 100 µM
EC50 (HBV DNA): 0.29 µM

COC(=O)C1=C(CN2CC(F)(F)CC2C(N)=O)NC(c2nccs2)=N[C@@]1(C)c1ccc(F)cc1 (stereo partly drawn) [Example 47, (S)-6-(2-carbamoyl-4,4-difluoro-pyrrolidin-1-ylmethyl)-4-(4-fluoro-phenyl)-4-methyl-2-thiazol-2-yl-1,4-dihydro-pyrimidine-5-carboxylic acid methyl ester]
CC50 at 5 days (in vitro): ≥ 100 µM
EC50 (HBV DNA): 0.048 µM

COC(=O)C1=C(CN2CC(F)(F)C[C@H]2C(=O)O)NC(c2ncc(C)s2)=NC1(C)c1ccc(F)cc1 (stereo partly drawn) [Example 19, 6-((S)-2-Carboxy-4,4-difluoro-pyrrolidin-1-ylmethyl)-4-(4-fluoro-phenyl)-4-methyl-2-(5-methyl-thiazol-2-yl)-1,4-dihydro-pyrimidine-5-carboxylic acid methyl ester]
CC50 at 5 days (in vitro): > 100 µM
EC50 (HBV DNA): 16.7 µM

COC(=O)C1=C(CN2CCOC[C@@H]2C(=O)O)NC(c2ccc(F)cn2)=NC1(C)c1ccc(F)cc1 (stereo partly drawn) [Example 9, 4-[6-(4-Fluoro-phenyl)-2-(5-fluoro-pyridin-2-yl)-5-methoxycarbonyl-6-methyl-3,6-dihydro-pyrimidin-4-ylmethyl]-morpholine-(R)-3-carboxylic acid]
CC50 at 5 days (in vitro): > 100 µM
EC50 (HBV DNA): 4.18 µM
